Tests used:
[1] = system: CCL-1 (transformed mouse fibroblasts, NCTC clone 929); experiment: MTT dye-reduction cytotoxicity assay (ISO 10993-5); type: cell-based; details: solvent alone, 72 h, at least 70% of cells viable, n = 3
Excerpt: (§1) The cell lines utilized in this study included the human tumor lines A-375 (malignant melanoma) and A-431 (non-melanoma epidermoid squamous skin carcinoma) as well as the models for non-tumorigenic cells—HaCaT (immortalized human keratinocytes) and CCL-1^TM (transformed mouse fibroblasts, NCTC clone 929). The first three cell lines were obtained from CLS Cell Lines Service (GmbH, Eppelheim, Germany). CCL-1^TM was purchased from the American Type Culture Collection (ATCC, Manassas, VA, USA). Cells were maintained in a controlled environment—sterile cell culture flasks in a CO2 incubator Panasonic MCO-18AC (Panasonic Healthcare co., ltd, Oizumi-Machi, Japan) at 37 °C and a humidified atmosphere containing 5% CO2. CCL-1 was cultured in MEM with 10% heat-inactivated horse serum and 2 mM L-glutamine, and the cell culture medium for the rest of the cell lines was DMEM-HG with 4.5 g/L glucose with the addition of 10% heat-inactivated fetal bovine serum and 4 mM L-glutamine. Pen/strep (concentration of penicillin G sodium 10^5 Units/L and of streptomycin sulfate 100 mg/L) was added to both culture media. The cell lines were maintained as an adherent monolayer in a log phase. The cells were sub-cultivated about 1–3 times per week after the monolayer reached 80–90% confluence. The medium was removed from the flask, and the cell monolayer was washed with 3–5 mL PBS. The cells were incubated with 0.05% EDTA in PBS for 8–10 min, followed by the next step where all cell lines were subjected to enzyme cell detachment. HaCaT and CCL-1 monolayers were detached with 1 mL solution of trypsin/EDTA (0.1%/0.05% for HaCaT and 0.25% (w/v)/0.53 mM for CCL-1) and incubated for 2–5 min at 37 °C (for HaCaT) or at room temperature (for CCL-1 cells), whereas Accutase® was used for A-375 and A-431 lines. The incubation lasted until the separation and dispersion of the cells in the monolayer were observed using light microscopy. In the end, all cell lines were resuspended in 10 mL medium and centrifuged for 3 min at 300× g. The cell pellet was resuspended in fresh medium and sub-cultivated at a seeding density of 1.0 × 10^4 cells/cm^2.
(§2) The MTT test was performed in order to determine the median inhibitory (IC50) and MTC concentrations of the solvents and PAC according to Annex C, ISO 10993-5 [2, 21]. Briefly, 100 µL of the cell suspension (1 × 10^5 cells/mL) were seeded per well in 96-well plates with a flat bottom. The cells were incubated for 24 h, allowing them to enter the log phase of their growth. On the 24th hour, the cells were treated with the solvents or CystiCran® solutions in concentrations ranging between 0.004% and 2% volume fraction (v/v) and incubated further for 72 h. The incubation periods are following the recommendations of the FDA guide for the use of ISO 10993-1 [1]. At the end of the incubation period, 10 µL of an MTT solution (5 mg/mL) were added to each well, and the plates were kept at 37 °C for 2 hours. Thereafter, the medium was aspirated, and the formed formazan crystals were dissolved in 100 μL/well of 2-propanol supplemented with 5% formic acid. The same solvent was used as a blank. Untreated cells were considered as a negative control. […] The absorption was measured at 540 nm (reference filter at 690 nm) on a microplate reader ELx800 (BioTek Instruments, Inc., Winooski, VT, Winooski, VT, USA).
(§3) The IC50 values from the MTT assay were evaluated with a non-linear regression analysis (Curve fit, GraphPad Prizm 6.01 software, GraphPad Software Inc., San Diego, CA, USA) using sigmoidal concentration–response curves. The cell viability is presented as a percentage of the untreated control. At least four wells were seeded for every concentration. Three independent assays were performed (n = 3).

[2] = system: HaCaT (immortalized human keratinocytes); experiment: MTT dye-reduction cytotoxicity assay (ISO 10993-5); type: cell-based; details: solvent alone, 72 h, at least 70% of cells viable, n = 3
Excerpt: as §1, §2, §3

[3] = system: breast cancer, mouse macrophage and human umbilical vein endothelial cells; parameters: method as in doi:10.17795/ajmb-33453; details: cited from earlier work
Bacillus subtilis = details: cited from earlier work

SMILES: CN(C)C=O [DMF, N,N-dimethylformamide]
- MTC (maximum tolerated concentration) [1]: 0.03 % (v/v)
- MTC (maximum tolerated concentration) [2]: 0.03 % (v/v)
- maximum tolerated concentration (MTC) / applicable concentration [3]: 0.1 % v/v
- tolerated concentration (Bacillus subtilis): ≥ 10 % v/v

— PMC8143291, “Cytotoxicity and Microbicidal Activity of Commonly Used Organic Solvents: A Comparative Study and Application to a Standardized Extract from Vaccinium macrocarpon” (Toxics, 2021)
